According to patent US11293024B2, “Antisense antibacterial compounds and methods” (priority 2014, dated 2022):
{(RXR)4XB} = cell-penetrating peptide (RXR)4XB; {Ac} = acetyl (COCH3) cap

Experiments:
Assay type in all cases: cell-based, Pseudomonas aeruginosa
[1] = system: P. aeruginosa PAO1; assay: MIC of Ampicillin as a function of AmpR PPMO and PMBN concentration
Source text: An AmpR PPMO combined with PMBN restores activity of Ampicillin in P. aeruginosa PAO1.
The ability to use PPMOs as adjunctive therapeutics to restore antibiotic sensitivity to existing drugs could be an intriguing way to explore treatment of multidrug-resistant pathogens that are increasingly being found in chronically infected patients. Frequently encountered resistance genes (β-lactamases, efflux pumps) were targeted. […] An exemplary PPMO, as set forth in Table 5 and illustrated below, was designed to target AmpR in P. aeruginosa, a global transcriptional regulator that regulates β-lactamases such as AmpC. […] Testing the AmpR PPMO in animal models would be a reasonable alternative approach to thinking of antisense as adjuvant therapy with traditional antibiotics.

[2] = system: panel of P. aeruginosa clinical isolates; assay: MIC of PPMOs with sub-inhibitory concentrations of Colistin (polymyxin E); settings: Colistin alone at either 1 or 0.5 μg/ml (depending on the strain)
Procedure: MICs are indicated by color and numerical value as in FIG. 1. All MICs were performed in the presence of 1 μg/mL of Colistin unless otherwise noted (*Strains with an asterisk were tested with 0.5 μg/mL of Colistin).
The overnight culture is plated to determine CFU/ml of starting inoculum. From the overnight culture 4 μl is taken into 10 ml of fresh medium and mixed well to obtain a bacterial working suspension. From the 10 ml, 50 μl is taken into 450 μl of saline. Serial dilutions of 10^−2, 10^−3 and 10^−4 are plated on BA. If Polymyxin B Nonapeptide (PMBN) is to be added, 4 μl/ml of PMBN is added from a stock of 1 mg/ml (in water) to the bacterial suspension for a 4 μg/ml final PMBN concentration.
For every PPMO to be tested, the following is done: 6.8 μl of a 1 mM PPMO stock is added to 413.2 μl of bacterial working suspension and vortexed. 200 μl is placed in the first row (A) of a 96-well plate in duplicate. 100 μl of bacterial working suspension is added to rows B thru F. Row A is mixed well by pipetting 10 times. Then 100 μl from each well of row A is added to the 100 μl of bacterial working suspension in each well of row B and mixed well 10 times. Serial dilutions are continued in the same manner through to row F. Finally, 100 μl in the last row is removed and discarded. […]
The plate is read in a plate reader to measure OD600. […]

[3] = system: P. aeruginosa strains that are multidrug resistant (strain T63547); assay: MIC in multidrug resistant P. aeruginosa strains; settings: strain T63547 (CF sputum; resistant to extended-spectrum penicillins, cephalosporins, quinolones, carbapenems)
Procedure: In addition, MIC values of 8 μM or less in P. aeruginosa strains that are multidrug resistant have been achieved. For example, strain T63547 was isolated from the sputum of a CF patient and was resistant to extended-spectrum penicillins, cephalosporins, quinolones and carbapenems. The RpsJ PPMOs and the RpmB PPMO had MIC values of 4 μM. PPMOs also retained activity in mucoid strains of P. aeruginosa (such as strain H27925; CF sputum sample). This is a critically important finding, as mucoid Pseudomonas poses significant treatment challenges.

[4] = system: P. aeruginosa PAO1 biofilm; assay: Biofilm prevention in MBEC plate (crystal violet); settings: 5 μM PPMO, 2 μg/mL PMBN, MHII, 20 hours; one-way ANOVA p<0.0001
Procedure: P. aeruginosa PAO1 (5×10^5 cfu/mL) was grown in MHII media in an MBEC plate for 20 hours either alone or in the presence of 5 μM of the indicated PPMOs, PMBN alone, (RXR)4, or a scrambled PPMO. All conditions contained 2 μg/mL of PMBN unless indicated otherwise. Pegs were processed for crystal violet or visualized by microscopy at 20 hours. […] FIGS. 6B-6D: Spinning Disk confocal microscopy images of 20 hour biofilm treated with (FIG. 6B) No PPMO, (FIG. 6C) 5 μM Scr PPMO #41, (FIG. 6D) 5 μM RpsJ PPMO #14. PAO1 GFP is shown in green and biofilm is shown in red. The biofilm is stained with 200 μg/mL of Concanavalin A, Alexafluor 647 conjugate.
Pseudomonas aeruginosa Biofilm Prevention in MBEC Plate Protocol
• 1. 10 mL of MH is inoculated with a single colony and incubated at 37° C. and ˜250 rpm for about 5 hours. • 2. The sample is centrifuged for 10 minutes at ˜4000 rpm at 4° C., the supernatant is decanted and the pellet resuspended in 10 mL of 150 mM NaCl or PBS. This step is repeated to wash the pellet 3 times. • 3. The sample is resuspended in 10 mL 150 mM NaCl or PBS. • 4. The OD600 of the sample is taken and cfu/mL is calculated. (OD600 usually between 0.65-0.80). • 5. A Bacterial Working Solution (BWS) is made by inoculating 10 mL of MH to 5×10^5 cfu/mL final concentration. • 6. 2 μL/mL of 1 mg/mL stock PMBN is added to the BWS and vortexed 3 times. • 7. 1 mL of BWS is pipetted into each separate Eppendorf tube for each condition that is tested. • 8. An appropriate amount of PPMO is added to each Eppendorf tube and vortexed 3 times. • 9. Outside wells are filled with fresh MH, NaCl, or PBS to keep the outer pegs from drying out. • 10. One column of the MBEC plate is filled with 150 μL per well from each Eppendorf tube (one condition per column). • 11. Pegs are placed into the MBEC plate and the edges covered with a breathable membrane. • 12. The MBEC plate is incubated for 18-20 hours at 37° C. and 110 rpm. Day 2:
1. […] The final OD570 of the 10× dilution of solution should be approximately 0.500 absorbance. […]
2. OD reading: The OD570 for the 96-well plate from step 1e is determined. […]

With “PPMO #28: ampR PMO GTCGAACCAAT, 5′ (RXR)4XB CPP, 3′ COCH3 (all phosphorodiamidate morpholino (PMO), 5' {(RXR)4XB}, 3' {Ac})” as the compound, how does the “MIC of Ampicillin” value ([1]; in the presence of 32 μM AmpR PPMO and 4 μg/ml PMBN) read?
Its value is 4 mg/L.

Which “growth inhibition by Colistin alone” value [2] does the source give for polymyxin E [Colistin] here?
Its value is “did not inhibit growth”.

With “PPMO #5: RpmB PMO CTCTAGACATG, 5′ TEG, 3′ (RXR)4XB CPP” as the compound, how does the MIC [3] read?
Its MIC is 4 µM.

What about the “prevention of biofilm (crystal violet)” value [4] of the same compound?
Its value is “statistically significant prevention of biofilm”.

“PPMO #2: LpxC PMO GTTGTTTGATC, 5′ TEG, 3′ (RXR)4XB CPP” was tested. Which “prevention of biofilm (crystal violet)” value [4] did it give?
The value was “statistically significant prevention of biofilm”.

For CC1(C)S[C@@H]2[C@H](NC(=O)[C@H](N)c3ccccc3)C(=O)N2[C@H]1C(=O)O [Ampicillin, ampicillin, reference compound], which MIC ([1]; Pseudomonas aeruginosa, PAO1, in the absence of PPMO) is on record?
Its MIC is 512 mg/L.
